Laboratory results: patent US9938249B2, “Anti-amyloid compounds containing benzofurazan” (Treventis Corporation, priority 2014, dated 2018)

The molecules below were run against Terminally biotinylated beta-amyloid (Aβ42) (Homo sapiens, UniProt P05067) (assay: Aβ42 biotinylated (biotin-AB) oligomerization assay, NeutrAvidin capture ELISA). Details: approximate value; 1 hr oligomerization at room temperature; read-out: IC50 Aβ 42-bio.
Type: biochemical
Procedure: Aβ42 Biotinylated Assay Terminally biotinylated beta-amyloid (biotin-AB) was dissolved in HFIP at the concentration of 1 mg/ml and aliquoted to 50 μl/tube in 0.65 ml colored microfuge tubes (Fisher 02-681-248). The aliquots were diluted immediately by adding 450 μl of HFIP to 0.1 mg/ml. Approximately 46 ul (containing approximately 4.6 ug of biotin-AB) were taken from a tube, 100 ul of HFIP added, vortexed, and dried to a thin film under an N2 stream. 100 μl of trifluoroacetic acid (TFA) was added and vortexed. After 10 minute incubation at room temperature in a hood, resulting in disaggregation of seeds, the sample was vortexed again and dried again to a thin film under an N2 stream. 100 μl of HFIP was added, mixed, and the biotin-AB sample was dried for a third time under an N2 stream to remove residual TFA. The treated biotin-AB was dissolved in DMSO to a final peptide concentration of […] (SOX). An ELISA “capture” plate (Costar 9018) was coated with 50 μl of 1 μg/ml NeutrAvidin™ (NA) in 10 mM sodium phosphate buffer, pH 7.5. (NeutrAvidin can be prepared as 1 mg/ml (1000×) in milliQ water/10% glycerol and stored at −80° C. before use.) The plate was sealed plate with adhesive film and stored at 4° C. overnight, then blocked for 2 hours (unsealed) at room temperature with 200 μl/well OFB+0.1% v/v Tween 20. The “capture” plate was allowed to come to room temperature. Several dilutions of test compound were prepared with 100% DMSO, according to the desired concentration to be tested. 2.5 μl of diluted test compound was pipetted into the bottom of each well of a 96-well “dilution” polypropylene plate (Costar 3365), to which was added 250 ul of Oligomer Formation Buffer (OFB: 20 mM sodium phosphate, pH 7.5-150 mM NaCl). To begin oligomerization, 2 μl/well of the biotin-AB was added to the bottom of each well of a 96-well “reaction” polypropylene plate (Costar 3365) and 100 ul of each well of the “dilution” plate was transferred to the “reaction” plate (final concentration of DMSO being up to 1%). The reaction plate was sealed and incubated for 1 hr at room temperature without shaking. The reaction was then stopped by the addition of 50 ul of 0.3% Tween 20 in water. The “capture” plate blocking solution was removed, and 50 ul of each well of the “reaction” plate was transferred to each well of the “capture” plate. The “capture” plate was sealed and incubated for 2 hours at room temperature with shaking at 150 rpm. The “capture” plate was then washed on a plate washer (3×) with 200 ul/well TBST (20 mM Tris-HCL, pH 7.5/150 mM NaCl/0.1% Tween 20). 50 ul of Streptavidin-horseradish […] (1:20,000 dilution) in OFB+0.1% Tween 20 was added to each well, the “capture” plate was sealed and incubated for 1 hr with shaking at 150 rpm. As before, the plate was washed, then 100 ul of TMB/H2O2 substrate solution was added to each well. After 5-10 minutes, 100 ul of 1% v/v sulfuric acid was added and the absorbance of each well was read at 450 nm using a standard plate reader. Data is summarized in the table below; numbers given in parenthesis for the Aβ 40 Thioflavin T assays are the values in that particular experiment for compound ID 1027, given as the first entry in this table for structural comparison. “IC50 Aβ42-bio” column refers to the approximate value of the Aβ42 biotinylated assay IC50 in micromoles/L.

Chain of Terminally biotinylated beta-amyloid (Aβ42) (P05067 672-713, species assumed): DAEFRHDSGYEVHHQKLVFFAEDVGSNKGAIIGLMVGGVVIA

Structure (SMILES)	IC50
OCc1ccc(-c2cc(N3CC(CN4CCOCC4)C3)c3nonc3c2)cc1 [compound 1592]	15.1 µM
OC(c1cnc(-c2cc(N3CC(CN4CCCC4)C3)c3nonc3c2)s1)C(F)(F)F (stereo not drawn) [compound 1597]	7.5 µM
OC(c1coc(-c2cc(N3CC(CN4CCOCC4)C3)c3nonc3c2)n1)C(F)(F)F (stereo not drawn) [compound 1608, 2,2,2-trifluoro-1-(2-(7-(3-(morpholinomethyl)azetidin-1-yl)benzo[c][1,2,5]oxadiazol-5-yl)oxazol-4-yl)ethan-1-ol]	8.6 µM
NC(=O)c1cccc(-c2cc(N3CC(CN4CCCC4)C3)c3nonc3c2)c1 [compound 1609, 3-(7-(3-(pyrrolidin-1-ylmethyl)azetidin-1-yl)benzo[c][1,2,5]oxadiazol-5-yl)benzamide]	2.4 µM
NC(=O)c1ccc(-c2cc(N3CC(CN4CCOCC4)C3)c3nonc3c2)cc1 [compound 1610, 4-(7-(3-(morpholinomethyl)azetidin-1-yl)benzo[c][1,2,5]oxadiazol-5-yl)benzamide]	> 20 µM
CN(C)C(=O)c1ccccc1-c1cc(N2CC(CN3CCOCC3)C2)c2nonc2c1 [compound 1615]	> 20 µM
CC(C)(O)c1ccc(-c2cc(N3CC(CN4CCOCC4)C3)c3nonc3c2)cc1 [compound 1616]	16.2 µM
CC(C)(O)c1cccc(-c2cc(N3CC(CN4CCOCC4)C3)c3nonc3c2)c1 [compound 1617]	14.6 µM
OC(c1ccc(-c2cc(N3CC(CN4CCOCC4)C3)c3nonc3c2)cn1)C(F)(F)F (stereo not drawn) [compound 1618, 2,2,2-trifluoro-1-(5-(7-(3-(morpholinomethyl)azetidin-1-yl)benzo[c][1,2,5]oxadiazol-5-yl)pyridin-2-yl)ethan-1-ol]	4.98 µM
OC(c1cccc(-c2cc(N3CC(CN4CCOCC4)C3)c3nonc3c2)n1)C(F)(F)F (stereo not drawn) [compound 1619, 2,2,2-trifluoro-1-(6-(7-(3-(morpholinomethyl)azetidin-1-yl)benzo[c][1,2,5]oxadiazol-5-yl)pyridin-2-yl)ethan-1-ol]	11.3 µM
OC(c1ccnc(-c2cc(N3CC(CN4CCOCC4)C3)c3nonc3c2)c1)C(F)(F)F (stereo not drawn) [compound 1620, 2,2,2-trifluoro-1-(2-(7-(3-(morpholinomethyl)azetidin-1-yl)benzo[c][1,2,5]oxadiazol-5-yl)pyridin-4-yl)ethan-1-ol]	11.1 µM
OC(c1cncc(-c2cc(N3CC(CN4CCOCC4)C3)c3nonc3c2)c1)C(F)(F)F (stereo not drawn) [compound 1621, 2,2,2-trifluoro-1-(5-(7-(3-(morpholinomethyl)azetidin-1-yl)benzo[c][1,2,5]oxadiazol-5-yl)pyridin-3-yl)ethan-1-ol]	16.7 µM
OC(c1ccc(-c2cc(N3CC(CN4CCOCC4)C3)c3nonc3c2)nc1)C(F)(F)F (stereo not drawn) [compound 1622, 2,2,2-trifluoro-1-(6-(7-(3-(morpholinomethyl)azetidin-1-yl)benzo[c][1,2,5]oxadiazol-5-yl)pyridin-3-yl)ethan-1-ol]	5.8 µM
OC(c1cnc(-c2cc(N3CC(CN4CCOCC4)C3)c3nonc3c2)s1)C(F)(F)F (stereo not drawn) [compound 1625]	4.2 µM
OC(c1csc(-c2cc(N3CC(CN4CCOCC4)C3)c3nonc3c2)n1)C(F)(F)F (stereo not drawn) [compound 1626]	10.9 µM
OC(c1nc(-c2cc(N3CC(CN4CCOCC4)C3)c3nonc3c2)cs1)C(F)(F)F (stereo not drawn) [compound 1627]	10.4 µM
OC(c1ccncc1-c1cc(N2CC(CN3CCOCC3)C2)c2nonc2c1)C(F)(F)F (stereo not drawn) [compound 1636, 2,2,2-trifluoro-1-(3-(7-(3-(morpholinomethyl)azetidin-1-yl)benzo[c][1,2,5]oxadiazol-5-yl)pyridin-4-yl) ethan-1-ol]	10.3 µM
OC1(c2cccc(-c3cc(N4CC(CN5CCOCC5)C4)c4nonc4c3)c2)COC1 [compound 1638]	3 µM
OC1(c2ccc(-c3cc(N4CC(CN5CCOCC5)C4)c4nonc4c3)cc2)COC1 [compound 1639]	3.2 µM
FC(F)(F)c1nc(-c2cc(N3CC(CN4CCOCC4)C3)c3nonc3c2)no1 [compound 1643, 4-(3-(morpholinomethyl)azetidin-1-yl)-6-(5-(trifluoromethyl)-1,2,4-oxadiazol-3-yl)benzo[c][1,2,5]oxadiazole]	14.2 µM
Cn1ncc(-c2cc(N3CC(CN4CCOCC4)C3)c3nonc3c2)c1C(O)C(F)(F)F (stereo not drawn) [compound 1647]	14.7 µM
Cn1ncc(C(O)C(F)(F)F)c1-c1cc(N2CC(CN3CCOCC3)C2)c2nonc2c1 (stereo not drawn) [compound 1651]	30.1 µM
COc1cc(-c2cc(N3CC(CN4CCOCC4)C3)c3nonc3c2)ccc1C1CC1 [compound 1660, 6-(4-cyclopropyl-3-methoxyphenyl)-4-(3-(morpholinomethyl)azetidin-1-yl) benzo[c][1,2,5]oxadiazole]	3.9 µM

Continued, values first:

IC50	Structure (SMILES)
30.2 µM	Fc1cc(F)cc(-c2cc(N3CC(CN4CCOCC4)C3)c3nonc3c2)c1 [compound 1588, 6-(3,5-difluorophenyl)-4-(3-(morpholinomethyl)azetidin-1-yl) benzo[c][1,2,5]oxadiazole]
> 20 µM	OCc1cnc(-c2cc(N3CC(CN4CCOCC4)C3)c3nonc3c2)s1 [compound 1594]
9.9 µM	OCc1cccc(-c2cc(N3CC(CN4CCOCC4)C3)c3nonc3c2)c1 [compound 1598]
> 20 µM	OCc1coc(-c2cc(N3CC(CN4CCOCC4)C3)c3nonc3c2)n1 [compound 1606, (2-(7-(3-(morpholinomethyl)azetidin-1-yl)benzo[c][1,2,5]oxadiazol-5-yl)oxazol-4-yl)methanol]
> 20 µM	OCc1cnc(-c2cc(N3CC(CN4CCOCC4)C3)c3nonc3c2)o1 [compound 1607, (2-(7-(3-(morpholinomethyl)azetidin-1-yl)benzo[c][1,2,5]oxadiazol-5-yl)oxazol-5-yl)methanol]
> 20 µM	COc1cc(N2CC(CN3CCOCC3)C2)c2nonc2c1 [compound 1611, 6-methoxy-4-(3-(morpholinomethyl)azetidin-1-yl)benzo[c][1,2,5]oxadiazole]
> 20 µM	CSc1cc(N2CC(CN3CCOCC3)C2)c2nonc2c1 [compound 1612, 6-(methylthio)-4-(3-(morpholinomethyl)azetidin-1-yl) benzo[c][1,2,5]oxadiazole]
> 20 µM	COc1cc(N2CC(CN3CCOCC3)C2)c2nonc2c1C [compound 1613, 5-methoxy-4-methyl-7-(3-(morpholinomethyl)azetidin-1-yl)benzo[c][1,2,5]oxadiazole]
33.1 µM	CC(C)(O)c1nc(-c2cc(N3CC(CN4CCOCC4)C3)c3nonc3c2)no1 [compound 1628]
15.7 µM	OCc1nc(-c2cc(N3CC(CN4CCOCC4)C3)c3nonc3c2)no1 [compound 1629]
> 20 µM	CC(C)(O)/C=C/c1cc(N2CC(CN3CCOCC3)C2)c2nonc2c1 [compound 1645, (E)-2-methyl-4-(7-(3-(morpholinomethyl)azetidin-1-yl)benzo[c][1,2,5]oxadiazol-5-yl)but-3-en-2-ol]
> 20 µM	COc1ncccc1-c1cc(N2CC(CN3CCOCC3)C2)c2nonc2c1 [compound 1658, 6-(2-methoxypyridin-3-yl)-4-(3-(morpholinomethyl)azetidin-1-yl) benzo[c][1,2,5]oxadiazole]
12.4 µM	COc1cc(-c2cc(N3CC(CN4CCOCC4)C3)c3nonc3c2)ccn1 [compound 1659, 6-(2-methoxypyridin-4-yl)-4-(3-(morpholinomethyl)azetidin-1-yl) benzo[c][1,2,5]oxadiazole]
